# Source: PubChem BioAssay (NCI)
#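 96-well plates; 48 h exposure; 5 concentrations. Endpoints by linear interpolation between flanking doses. Not reached: highest tested concentration assigned. GI50 is the concentration that inhibits growth by half. TGI: total growth inhibition.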
# What was measured:
# Assay in all cases: growth of human tumour cells (NCI), 48 h
# 786-0 renal = system: 786-0 renal
# A498 renal = system: A498 renal
# A549 NSCLC = system: A549 NSCLC
# ACHN renal = system: ACHN renal
# CAKI-1 renal = system: CAKI-1 renal
# CCRF-CEM leukemia = system: CCRF-CEM leukemia
# COLO 205 colon = system: COLO 205 colon
# DLD-1 colon = system: DLD-1 colon
# DMS 114 small cell lung = system: DMS 114 small cell lung
# DMS 273 small cell lung = system: DMS 273 small cell lung
# EKVX NSCLC = system: EKVX NSCLC
# HCC-2998 colon = system: HCC-2998 colon
# HCT-116 colon = system: HCT-116 colon
# HCT-15 colon = system: HCT-15 colon
# HL-60(TB) leukemia = system: HL-60(TB) leukemia
# HOP-62 NSCLC = system: HOP-62 NSCLC
# HT29 colon = system: HT29 colon
# IGROV1 ovarian = system: IGROV1 ovarian
# K-562 leukemia = system: K-562 leukemia
# KM12 colon = system: KM12 colon
# KM20L2 colon = system: KM20L2 colon
# LOX IMVI melanoma = system: LOX IMVI melanoma
# LXFL 529 NSCLC = system: LXFL 529 NSCLC
# M14 melanoma = system: M14 melanoma
# M19-MEL melanoma = system: M19-MEL melanoma
# MALME-3M melanoma = system: MALME-3M melanoma
# MOLT-4 leukemia = system: MOLT-4 leukemia
# NCI-H23 lung = system: NCI-H23 lung
# NCI-H460 lung = system: NCI-H460 lung
# NCI-H522 lung = system: NCI-H522 lung
# OVCAR-3 ovarian = system: OVCAR-3 ovarian
# OVCAR-4 ovarian = system: OVCAR-4 ovarian
# OVCAR-8 ovarian = system: OVCAR-8 ovarian
# RPMI-8226 leukemia = system: RPMI-8226 leukemia
# RXF 393 renal = system: RXF 393 renal
# SF-268 CNS = system: SF-268 CNS
# SF-295 CNS = system: SF-295 CNS
# SK-MEL-2 melanoma = system: SK-MEL-2 melanoma
# SK-MEL-28 melanoma = system: SK-MEL-28 melanoma
# SK-MEL-5 melanoma = system: SK-MEL-5 melanoma
# SK-OV-3 ovarian = system: SK-OV-3 ovarian
# SN12C renal = system: SN12C renal
# SNB-19 CNS = system: SNB-19 CNS
# SR leukemia = system: SR leukemia
# SW-620 colon = system: SW-620 colon
# TK-10 renal = system: TK-10 renal
# U251 CNS = system: U251 CNS
# UACC-257 melanoma = system: UACC-257 melanoma
# UACC-62 melanoma = system: UACC-62 melanoma
# UO-31 renal = system: UO-31 renal
# XF 498 CNS = system: XF 498 CNS
compound,measurement,setting,value
CC(C)=[CH][Sb]([Br])([CH]=C(C)C)([CH]=C(C)C)[c]1ccccc1,GI50,786-0 renal,43.7 µM
same,TGI,786-0 renal,> 100 µM
same,GI50,A498 renal,73 µM
same,TGI,A498 renal,> 100 µM
same,GI50,A549 NSCLC,16.6 µM
same,TGI,A549 NSCLC,> 100 µM
same,GI50,ACHN renal,36.9 µM
same,TGI,ACHN renal,> 100 µM
same,GI50,CAKI-1 renal,> 100 µM
same,TGI,CAKI-1 renal,> 100 µM
same,GI50,CCRF-CEM leukemia,12.8 µM
same,TGI,CCRF-CEM leukemia,46.6 µM
same,GI50,COLO 205 colon,4.52 µM
same,TGI,COLO 205 colon,19.2 µM
same,GI50,DLD-1 colon,34 µM
same,TGI,DLD-1 colon,> 100 µM
same,GI50,DMS 114 small cell lung,13.1 µM
same,TGI,DMS 114 small cell lung,46.3 µM
same,GI50,DMS 273 small cell lung,3.91 µM
same,TGI,DMS 273 small cell lung,31 µM
same,GI50,EKVX NSCLC,3.95 µM
same,TGI,EKVX NSCLC,> 100 µM
same,GI50,HCC-2998 colon,27.2 µM
same,TGI,HCC-2998 colon,> 100 µM
same,GI50,HCT-116 colon,13 µM
same,TGI,HCT-116 colon,47.2 µM
same,GI50,HCT-15 colon,> 100 µM
same,TGI,HCT-15 colon,> 100 µM
same,GI50,HL-60(TB) leukemia,3.71 µM
same,TGI,HL-60(TB) leukemia,15.6 µM
same,GI50,HOP-62 NSCLC,43.9 µM
same,TGI,HOP-62 NSCLC,> 100 µM
same,GI50,HT29 colon,20.6 µM
same,TGI,HT29 colon,> 100 µM
same,GI50,IGROV1 ovarian,16.9 µM
same,TGI,IGROV1 ovarian,> 100 µM
same,GI50,K-562 leukemia,11 µM
same,TGI,K-562 leukemia,23 µM
same,GI50,KM12 colon,6.74 µM
same,TGI,KM12 colon,> 100 µM
same,GI50,KM20L2 colon,15.9 µM
same,TGI,KM20L2 colon,> 100 µM
same,GI50,LOX IMVI melanoma,35.4 µM
same,TGI,LOX IMVI melanoma,> 100 µM
same,GI50,LXFL 529 NSCLC,20.3 µM
same,TGI,LXFL 529 NSCLC,> 100 µM
same,GI50,M14 melanoma,20.6 µM
same,TGI,M14 melanoma,82.4 µM
same,GI50,M19-MEL melanoma,6.14 µM
same,TGI,M19-MEL melanoma,> 100 µM
same,GI50,MALME-3M melanoma,6.07 µM
same,TGI,MALME-3M melanoma,> 100 µM
same,GI50,MOLT-4 leukemia,23.9 µM
same,TGI,MOLT-4 leukemia,> 100 µM
same,GI50,NCI-H23 lung,14.4 µM
same,TGI,NCI-H23 lung,45.1 µM
same,GI50,NCI-H460 lung,21.6 µM
same,TGI,NCI-H460 lung,> 100 µM
same,GI50,NCI-H522 lung,3.32 µM
same,TGI,NCI-H522 lung,13.9 µM
same,GI50,OVCAR-3 ovarian,4.32 µM
same,TGI,OVCAR-3 ovarian,67.3 µM
same,GI50,OVCAR-4 ovarian,49.3 µM
same,TGI,OVCAR-4 ovarian,> 100 µM
same,GI50,OVCAR-8 ovarian,29.6 µM
same,TGI,OVCAR-8 ovarian,> 100 µM
same,GI50,RPMI-8226 leukemia,2.12 µM
same,TGI,RPMI-8226 leukemia,15.7 µM
same,GI50,RXF 393 renal,11.4 µM
same,TGI,RXF 393 renal,57.5 µM
same,GI50,SF-268 CNS,14.5 µM
same,TGI,SF-268 CNS,58.2 µM
same,GI50,SF-295 CNS,20.2 µM
same,TGI,SF-295 CNS,90.1 µM
same,GI50,SK-MEL-2 melanoma,26 µM
same,TGI,SK-MEL-2 melanoma,86.7 µM
same,GI50,SK-MEL-28 melanoma,17.3 µM
same,TGI,SK-MEL-28 melanoma,> 100 µM
same,GI50,SK-MEL-5 melanoma,4.27 µM
same,TGI,SK-MEL-5 melanoma,21.1 µM
same,GI50,SK-OV-3 ovarian,23 µM
same,TGI,SK-OV-3 ovarian,74.6 µM
same,GI50,SN12C renal,25.4 µM
same,TGI,SN12C renal,> 100 µM
same,GI50,SNB-19 CNS,8.95 µM
same,TGI,SNB-19 CNS,79 µM
same,GI50,SR leukemia,18.7 µM
same,TGI,SR leukemia,> 100 µM
same,GI50,SW-620 colon,32.6 µM
same,TGI,SW-620 colon,> 100 µM
same,GI50,TK-10 renal,34.9 µM
same,TGI,TK-10 renal,> 100 µM
same,GI50,U251 CNS,16.3 µM
same,TGI,U251 CNS,74.2 µM
same,GI50,UACC-257 melanoma,6.35 µM
same,TGI,UACC-257 melanoma,> 100 µM
same,GI50,UACC-62 melanoma,16 µM
same,TGI,UACC-62 melanoma,97.2 µM
same,GI50,UO-31 renal,23.2 µM
same,TGI,UO-31 renal,> 100 µM
same,GI50,XF 498 CNS,24.3 µM
same,TGI,XF 498 CNS,> 100 µM
